Source: patent US9181214B2 (RHIZEN PHARMACEUTICALS SA, priority 2011, dated 2015)

Experiments:
Mouse GPR119 = target: T1, Mouse GPR119 (Mus musculus, UniProt Q7TQP3); assay: In vitro mouse GPR 119 cyclic AMP assay in stably transfected HEK293 cells; assay type: cell-based; conditions: cAMP, HEK293 cells stably transfected with mouse GPR119
T1 construct: expressed in transfected cells
T1 sequence (Q7TQP3 1-335): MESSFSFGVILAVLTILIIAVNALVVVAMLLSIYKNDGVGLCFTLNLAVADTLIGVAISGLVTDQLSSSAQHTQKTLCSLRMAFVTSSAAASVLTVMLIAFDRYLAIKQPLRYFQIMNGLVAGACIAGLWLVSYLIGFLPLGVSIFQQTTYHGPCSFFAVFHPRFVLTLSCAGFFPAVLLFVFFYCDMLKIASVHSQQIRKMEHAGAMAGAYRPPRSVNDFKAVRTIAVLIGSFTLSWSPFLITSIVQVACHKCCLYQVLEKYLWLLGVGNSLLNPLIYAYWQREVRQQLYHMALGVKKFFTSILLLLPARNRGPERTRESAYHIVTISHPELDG
Protocol: B. In Vitro Mouse GPR 119 Cyclic AMP Assay:
(§1) cAMP measurements were done using a Cisbio dynamic 2 HTRF kit (Cisbio, Bedford, Mass.) according to the manufacturer's protocol. HEK293 Cells were stably transfected with Mouse GPR119 expression plasmid DNA using Lipofectamine 2000 (Invitrogen) and maintained in culture. Cells were harvested, counted and plated at 1000 cells/5 ul in a black 384 welled small volume plate. Cells were treated with desired concentrations of compounds and incubated for 60 min at room temperature. Lysis buffer containing cAMP-d2 and cryptate conjugate were added and incubated for 1 h. HRTF ratio was measured on a microplate reader (BMG Labtech., Germany) at an excitation wavelength of 337 nm and emission wavelengths of 665 and 615 nm with an integration time of 400 μsec. Data were analyzed using Graphpad Prism (Graphpad software; San Diego Calif.) for EC50 determination.

human GPR119 = target: T2, human GPR119 (Homo sapiens, UniProt Q8TDV5); assay: In vitro cyclic AMP assay (Cisbio HTRF) in HEK293 cells transfected with human GPR119; assay type: cell-based; conditions: cAMP; for activation at 10 µM: 1 h, % Induction @ 10 μM; for EC50: Emax varies between 65 to 80%
T2 construct: expressed in transfected cells; host or cells: HEK293 (transient transfection, Lipofectamine 2000)
T2 sequence (Q8TDV5 1-335): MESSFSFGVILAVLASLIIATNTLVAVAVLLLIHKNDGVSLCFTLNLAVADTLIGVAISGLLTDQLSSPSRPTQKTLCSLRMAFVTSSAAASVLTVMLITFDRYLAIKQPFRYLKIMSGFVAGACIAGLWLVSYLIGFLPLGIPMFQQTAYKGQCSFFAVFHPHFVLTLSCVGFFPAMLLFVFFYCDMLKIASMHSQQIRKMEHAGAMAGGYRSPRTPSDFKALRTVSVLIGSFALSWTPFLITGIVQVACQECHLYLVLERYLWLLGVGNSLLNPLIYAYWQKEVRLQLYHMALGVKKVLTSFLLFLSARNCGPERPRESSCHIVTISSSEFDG
Summary of the method: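 HEK293 cells transiently transfected with human GPR119 plasmid (or empty vector), replated 24 h later and exposed to compounds for 60 min at room temperature. cAMP measured by HTRF (cAMP-d2/cryptate, 665/620 nm ratio) after 1 h lysis; EC50 from concentration-response curves, also % induction at 10 μM.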

HIT-T15 cells = assay: In vitro HIT-T15 cyclic AMP assay; assay type: cell-based; conditions: cAMP
Protocol: C. In Vitro HIT-T15 Cyclic AMP Assay:
as §1, with “Briefly, HIT-T15 cells” for “HEK293 Cells were stably transfected with Mouse GPR119 expression plasmid DNA using Lipofectamine 2000 (Invitrogen) and maintained in culture. Cells”, “4000” for “1000”, “ul PBS-BSA solution” for “ul”

C57Bl/6J mice = assay: Oral glucose tolerance test (OGTT) in C57Bl/6J mice; assay type: in vivo; conditions: single oral dose 1 h before 2.0 g/kg oral glucose, sitagliptin 10 mg/kg, vs vehicle
Protocol: FIG. 1 is a graph of blood glucose over time in C57BI/6J mice according to the oral glucose tolerance test (Biological Assay Procedure E) before and after oral administration of vehicle (control), compound A (Example 64@ 30 mg/kg), or sitagliptin (10 mg/kg @ 10 mg/kg).
FIG. 2 is a graph of blood glucose over time in C57BI/6J mice according to the oral glucose tolerance test (Biological Assay Procedure E) before and after oral administration of vehicle (control), compound […] (Example 42 @ 10 mg/kg), or sitagliptin (10 mg/kg @ 10 mg/kg).
E: Oral Glucose Tolerance Test (OGTT) in C57Bl/6J Mice:
After the quarantine period, 6 hr fasted animals were randomized and divided into various groups depending on their blood glucose levels. Test compounds or standard drug (sitagliptin) was prepared as a suspension in a vehicle consisting of 0.5% methylcellulose and Tween 80 as a suspending agent. The standard drug, Compound A (example-64), Compound B (example-42) or vehicle were administered by oral gavage in a volume of 10 mL/kg. 1 h after the test compounds, standard drug and vehicle administration, blood was sampled from the tail vein of mice at time 0 min (baseline) and at 30, 60, 90 and 120 min after an oral glucose load of 2.0 g/kg of body weight. Food, but not water, was withheld from the cages during the course of experiment. The area under curve (AUC) of experimental animals was compared with that of vehicle-treated control group. The results are shown in FIGS. 1 and 2 and are discussed below.

[1] = FIG. 2 study, Compound B 10 mg/kg
[2] = FIG. 1 study, Compound A 30 mg/kg

Row | SMILES | activation at 10 µM (human GPR119; Table I) [%] | melting point [°C] | other results
1 | CNS(=O)(=O)c1ccc(-c2ccc3oc(C4CCN(C(=O)OC(C)C)CC4)nc3c2)cc1 [EXAMPLE-47, Isopropyl 4-{5-[4-(N-methylsulfamoyl)phenyl]benzo[d]oxazol-2-yl}piperidine-1-carboxylate] | 33.1 | 179 to 181 | –
2 | CNC(=O)c1ccc(-c2ccc3oc(C4CCN(C(=O)OC(C)C)CC4)nc3c2)cn1 [EXAMPLE-48, Isopropyl 4-{5-[6-(methylcarbamoyl)pyridin-3-yl]benzo[d]oxazol-2-yl}piperidine-1-carboxylate] | 26.7 | 158 to 161 | –
3 | CNC(=O)c1ccc(-c2ccc3oc(C4CCN(C(=O)OC(C)C)CC4)nc3c2)cc1C [EXAMPLE-49, Isopropyl 4-{5-[3-methyl-4-(methylcarbamoyl)phenyl]benzo[d]oxazol-2-yl}piperidine-1-carboxylate] | 32.9 | 151 to 154 | –
4 | NC(=O)c1ccc(-c2ccc3oc(C4CCN(c5ncc(F)cn5)CC4)nc3c2)cc1F [EXAMPLE-51, 2-Fluoro-4-{2-[1-(5-fluoropyrimidin-2-yl)piperidin-4-yl]benzo[d]oxazol-5-yl}benzamide] | 38.7 | 226 to 229 | –
5 | CC(C)OC(=O)N1CCC(c2ccc3oc(-c4ccc(S(C)(=O)=O)cc4F)nc3c2)CC1 [EXAMPLE-64, Isopropyl 4-{2-[2-fluoro-4-(methylsulfonyl)phenyl]benzo[d]oxazol-5-yl}piperidine-1-carboxylate] | – | – | activation at 10 µM (human GPR119; Table II): 75%; EC50 (human GPR119; Table II): ≤ 25 nM; lowered AUCglucose (C57Bl/6J mice; [2]): 24%
6 | CS(=O)(=O)c1ccc(-c2nc3cc(C4CCN(c5ncc(F)cn5)CC4)ccc3o2)c(F)c1 [EXAMPLE-81] | – | 220 to 222 | activation at 10 µM (human GPR119; Table II): 43%
7 | N[C@@H](CC(=O)N1CCn2c(nnc2C(F)(F)F)C1)Cc1cc(F)c(F)cc1F [Sitagliptin, sitagliptin, reference compound] | – | – | lowered AUCglucose (C57Bl/6J mice; [2]): 59%; lowered AUCglucose (C57Bl/6J mice; [1]): 50%

The next lines start with results.

Row | activation at 10 µM (human GPR119; Table I) [%] | melting point [°C] | SMILES | other results
8 | 83 | – | CC(C)(C)OC(=O)N1CCC(c2nc3cc(-c4ccc(-n5cnnn5)cc4F)ccc3o2)CC1 [EXAMPLE-12, Tert-butyl 4-{5-[2-fluoro-4-(1H-tetrazol-1-yl)phenyl]benzo[d]oxazol-2-yl}piperidine-1-carboxylate] | EC50 (Mouse GPR119): < 25 nM; EC50 (human GPR119; Table I): ≤ 25 nM; EC50 (HIT-T15 cells): < 25 nM
9 | 78.4 | 116 to 120 | CNC(=O)c1ccc(-c2ccc3oc(C4CCN(C(=O)OC(C)C)CC4)nc3c2)cc1F [EXAMPLE-42, Isopropyl 4-{5-[3-fluoro-4-(methylcarbamoyl)phenyl]benzo[d]oxazol-2-yl}piperidine-1-carboxylate] | EC50 (human GPR119; Table I): 25 to 50 nM; lowered AUCglucose (C57Bl/6J mice; [1]): 22%
10 | 38.7 | 162 to 165 | CC(C)OC(=O)N1CCC(c2nc3cc(-c4ccc(C(=O)NC5CC5)c(F)c4)ccc3o2)CC1 [EXAMPLE-50, Isopropyl 4-{5-[4-(cyclopropylcarbamoyl)-3-fluorophenyl]benzo[d]oxazol-2-yl}piperidine-1-carboxylate] | –
11 | – | 174 to 179 | CC(C)(C)OC(=O)N1CCC(c2ccc3nc(-c4ccc(C(F)(F)F)cc4)oc3c2)CC1 [EXAMPLE-84, Tert-butyl 4-{2-[4-(trifluoromethyl)phenyl]benzo[d]oxazol-6-yl}piperidine-1-carboxylate] | activation at 10 µM (human GPR119; Table II): 13.2%
